The text below walks through data of patent US20250255304A1, “HIGHLY TRA[…] CONTROLLING COMPOSITION” (ZM Crop Protection Corporation, priority 2022, published 2025).

What all share (format): in vivo
Assay [1] relates to Coptotermes formosanus Shiraki. Kind of assay: Test Example 2: primary transmission treatment effect. The procedure: (§1) A test agent solution containing 0.023 parts of dicloromezotiaz was prepared by adding 99.875 parts of water to 0.125 parts of the aqueous suspension composition shown in Formulation Example 1. As comparative examples, four types of commercially available neonicotinoid termite controlling agents and four types of slow-acting termite controlling agents shown in Table 2 were diluted with water at practical concentrations to prepare test agent solutions. The “agent concentration (%)” indicates the concentration of the active ingredient contained in each of the composition of the present invention and the termite controlling agents and the “test agent solution concentration (%)” indicates the concentration of the active ingredient in each of the prepared test agent solutions.
(§2) After 1.2 g of each of the test agent solutions of the example and the comparative examples diluted to a predetermined concentration and prepared was added to 4.8 g of soil, 6 g of the mixed soil was spread in a glass petri dish having a diameter of 50 mm and ten workers of Coptotermes formosanus Shiraki were released into the petri dish and exposed to the agent solution for 4 hours.

Assay [2] deals with Coptotermes formosanus Shiraki. In words: Test Example 2: secondary transmission treatment effect. The procedure:
as §1, §2

The subject of assay [3] is Coptotermes formosanus Shiraki. Kind of assay: Test Example 3: extirpation test with dust formulation using simulated termite trails. As to conditions: active ingredient concentration 50%.
Where [4] appears, read: after 1 day, Table 4, dicloromezotiaz 0.023%, chlorfenapyr 0.11%, clothianidin 0.05%, dinotefuran 0.20%, thiamethoxam 0.10%, broflanilide 0.03% solution in soil.
[5] abbreviates: after 3 days, Table 4, dicloromezotiaz 0.023%, chlorfenapyr 0.11%, clothianidin 0.05%, dinotefuran 0.20%, thiamethoxam 0.10%, broflanilide 0.03% solution in soil.
[6] abbreviates: after 7 days, Table 4, dicloromezotiaz 0.023%, chlorfenapyr 0.11%, clothianidin 0.05%, dinotefuran 0.20%, thiamethoxam 0.10%, broflanilide 0.03% solution in soil.
The mark [7] stands for this setting: after 14 days, Table 4, dicloromezotiaz 0.023%, chlorfenapyr 0.11%, clothianidin 0.05%, dinotefuran 0.20%, thiamethoxam 0.10%, broflanilide 0.03% solution in soil.
Setting [8] is: after 21 days, Table 4, dicloromezotiaz 0.023%, chlorfenapyr 0.11%, clothianidin 0.05%, dinotefuran 0.20%, thiamethoxam 0.10%, broflanilide 0.03% solution in soil.
The mark [9] stands for this setting: after 1 day, Table 6, dicloromezotiaz 0.023%, chlorfenapyr 0.11%, clothianidin 0.05%, dinotefuran 0.20%, thiamethoxam 0.10%, broflanilide 0.03% solution in soil.
Setting [10] is: after 3 days, Table 6, dicloromezotiaz 0.023%, chlorfenapyr 0.11%, clothianidin 0.05%, dinotefuran 0.20%, thiamethoxam 0.10%, broflanilide 0.03% solution in soil.
Where [11] appears, read: after 7 days, Table 6, dicloromezotiaz 0.023%, chlorfenapyr 0.11%, clothianidin 0.05%, dinotefuran 0.20%, thiamethoxam 0.10%, broflanilide 0.03% solution in soil.
[12] abbreviates: after 14 days, Table 6, dicloromezotiaz 0.023%, chlorfenapyr 0.11%, clothianidin 0.05%, dinotefuran 0.20%, thiamethoxam 0.10%, broflanilide 0.03% solution in soil.
The mark [13] stands for this setting: after 21 days, Table 6, dicloromezotiaz 0.023%, chlorfenapyr 0.11%, clothianidin 0.05%, dinotefuran 0.20%, thiamethoxam 0.10%, broflanilide 0.03% solution in soil.

Turning to `CNC(=O)c1cc(Cl)cc(C)c1NC(=O)c1cc(Br)nn1-c1ncccc1Cl` [Chlorantraniliprole], the “Abnormal or dead termite rate (%)” value was 98% in assay [1] (after 1 day, Table 3, dicloromezotiaz 0.023%, fipronil 0.03%, imidacloprid 0.10%, chlorantraniliprole 0.05% solution in soil); 100% in assay [1] (after 3 days, Table 3, dicloromezotiaz 0.023%, fipronil 0.03%, imidacloprid 0.10%, chlorantraniliprole 0.05% solution in soil); 85% in assay [1] (after 7 days, Table 3, dicloromezotiaz 0.023%, fipronil 0.03%, imidacloprid 0.10%, chlorantraniliprole 0.05% solution in soil); 80% in assay [1] (after 14 days, Table 3, dicloromezotiaz 0.023%, fipronil 0.03%, imidacloprid 0.10%, chlorantraniliprole 0.05% solution in soil); 85% in assay [1] (after 21 days, Table 3, dicloromezotiaz 0.023%, fipronil 0.03%, imidacloprid 0.10%, chlorantraniliprole 0.05% solution in soil); 10% in assay [2] (after 1 day, Table 5, dicloromezotiaz 0.023%, fipronil 0.03%, imidacloprid 0.10%, chlorantraniliprole 0.05% solution in soil). Moreover, the “Abnormal or dead termite rate (%)” value is recorded as 2.2% in assay [2] (after 3 days, Table 5, dicloromezotiaz 0.023%, fipronil 0.03%, imidacloprid 0.10%, chlorantraniliprole 0.05% solution in soil); 1.1% in assay [2] (after 7 days, Table 5, dicloromezotiaz 0.023%, fipronil 0.03%, imidacloprid 0.10%, chlorantraniliprole 0.05% solution in soil); 2.2% in assay [2] (after 14 days, Table 5, dicloromezotiaz 0.023%, fipronil 0.03%, imidacloprid 0.10%, chlorantraniliprole 0.05% solution in soil); 7.8% in assay [2] (after 21 days, Table 5, dicloromezotiaz 0.023%, fipronil 0.03%, imidacloprid 0.10%, chlorantraniliprole 0.05% solution in soil).

For the compound `CN1COCN(Cc2cnc(Cl)s2)/C1=N\[N+](=O)[O-]` [Thiamethoxam], the “Abnormal or dead termite rate (%)” value is listed as 98% in assay [1] (setting [4]); 91% in assay [1] (setting [5]); 98% in assay [1] (setting [6]); 95% in assay [1] (setting [7]); 96% in assay [1] (setting [8]); 0% in assay [2] (setting [9]). Moreover, the “Abnormal or dead termite rate (%)” value in assay [2] (setting [10]) is 0%; in assay [2] (setting [11]), 3.3%; in assay [2] (setting [12]) it was 3.3%; in assay [2] (setting [13]), 4.4%.

On to `N#Cc1ccc(CC(=NNC(=O)Nc2ccc(OC(F)(F)F)cc2)c2cccc(C(F)(F)F)c2)cc1` (mixture of isomers) [Metaflumizone, metaflumizone], for which the “Abnormal or dead termite rate (%)” value in assay [3] (1 h), in assay [3] (2 h), in assay [3] (3 h), in assay [3] (4 h), in assay [3] (5 h) and in assay [3] (6 h) was 0% in each case. Further, the “Abnormal or dead termite rate (%)” value in assay [3] (7 h) is given as 0%; in assay [3] (1 day), 100%; in assay [3] (2 days), 100%; in assay [3] (3 days), 100%; in assay [3] (7 days) it was 100%.

Consider `CN(C(=O)c1ccccc1)c1cccc(C(=O)Nc2c(Br)cc(C(F)(C(F)(F)F)C(F)(F)F)cc2C(F)(F)F)c1F` [Broflanilide], for which the “Abnormal or dead termite rate (%)” value in assay [1] (setting [4]) was found to be 100%; in assay [1] (setting [5]), 73%; in assay [1] (setting [6]), 48%; in assay [1] (setting [7]), 53%; in assay [1] (setting [8]), 56%; in assay [2] (setting [9]), 2.2%. In addition, the “Abnormal or dead termite rate (%)” value was determined as 0% in assay [2] (setting [10]), 3.3% in assay [2] (setting [11]), 5.6% in assay [2] (setting [12]) and 6.7% in assay [2] (setting [13]).

As to `CCOCn1c(-c2ccc(Cl)cc2)c(C#N)c(Br)c1C(F)(F)F` [Chlorfenapyr], the “Abnormal or dead termite rate (%)” value in assay [1] (setting [4]) stood at 89%; in assay [1] (setting [5]) it was 80%; in assay [1] (setting [6]), 89%; in assay [1] (setting [7]) it was 100%; in assay [1] (setting [8]), 100%; in assay [2] (setting [9]) it was 0%. In addition, the “Abnormal or dead termite rate (%)” value is given as 0% in assay [2] (setting [10]), 3.3% in assay [2] (setting [11]), 7.8% in assay [2] (setting [12]) and 31% in assay [2] (setting [13]).

Consider `CN/C(=N/CC1CCOC1)N[N+](=O)[O-]` (centres unmarked) [Dinotefuran], for which the “Abnormal or dead termite rate (%)” value in assay [1] (setting [4]) was 93%; in assay [1] (setting [5]), 94%; in assay [1] (setting [6]), 96%; in assay [1] (setting [7]), 98%; in assay [1] (setting [8]), 99%; in assay [2] (setting [9]) it was 24%. Besides, the “Abnormal or dead termite rate (%)” value in assay [2] (setting [10]) came to 18%; in assay [2] (setting [11]) it was 16%; in assay [2] (setting [12]), 18%; in assay [2] (setting [13]), 22%.

For the compound `CN/C(=N\[N+](=O)[O-])NCc1cnc(Cl)s1` [Clothianidin], the “Abnormal or dead termite rate (%)” value in assay [1] (setting [4]) is 94%; in assay [1] (setting [5]), 89%; in assay [1] (setting [6]), 75%; in assay [1] (setting [7]), 91%; in assay [1] (setting [8]) it was 94%; in assay [2] (setting [9]), 0%. The “Abnormal or dead termite rate (%)” value in assay [2] (setting [10]) came out at 0%; in assay [2] (setting [11]), 3.3%; in assay [2] (setting [12]) it was 3.3%; in assay [2] (setting [13]), 4.4%.
